Where “and” joins values, the source holds several entries; their conditions need not be identical. Identical values can stand only once. Where a SMILES comes first, the peptide text is derived from it. Bridges are numbered along the chain shown (N, C = ends). The star is where a group is joined. X2 = CN(C)c1ccc2c(-c3cc(C(=O)*)ccc3C(=O)[O-])c3ccc(=[N+](C)C)cc-3oc2c1; X1 = C[N+]1=C(/C=C/C=C2/N(CCCCCC(=O)*)c3ccccc3C2(C)C)C(C)(C)c2ccccc21; BODIPY(FL) = CC1=CC(C)=[N+]2C1=Cc1ccc(CCC(=O)*)n1[B-]2(F)F

In data set [1] the target is T1, rat α7 nAChRs (Rattus norvegicus, UniProt Q05941).
T1 construct: expressed in transfected cells; host or cells: Xenopus laevis oocytes injected with cRNA; plasmids from J. Michael McIntosh (University of Utah)
T1 sequence (Q05941 23-502): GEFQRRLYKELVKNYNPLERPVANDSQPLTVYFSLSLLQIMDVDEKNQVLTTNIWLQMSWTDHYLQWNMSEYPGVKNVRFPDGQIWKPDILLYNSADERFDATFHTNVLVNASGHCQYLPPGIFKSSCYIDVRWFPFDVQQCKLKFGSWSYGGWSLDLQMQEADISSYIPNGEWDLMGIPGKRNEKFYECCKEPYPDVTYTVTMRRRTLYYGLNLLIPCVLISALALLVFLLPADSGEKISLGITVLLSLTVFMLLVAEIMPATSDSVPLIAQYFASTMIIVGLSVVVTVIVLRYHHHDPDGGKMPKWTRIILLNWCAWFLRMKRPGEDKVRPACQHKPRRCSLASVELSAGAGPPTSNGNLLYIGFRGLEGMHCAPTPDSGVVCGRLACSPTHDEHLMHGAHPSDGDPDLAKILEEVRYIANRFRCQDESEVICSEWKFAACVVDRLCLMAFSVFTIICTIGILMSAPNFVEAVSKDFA
The data set is described as follows: cell-based. Format: cell-based.

In data set [2] the target is T2, rat α6/α3β4 nAChRs (Rattus norvegicus, UniProt P04757+P12392+P43143).
T2 construct: expressed in transfected cells; host or cells: Xenopus laevis oocytes injected with cRNA; plasmids from J. Michael McIntosh (University of Utah)
T2 sequence (P43143+P04757 fused with the stated changes): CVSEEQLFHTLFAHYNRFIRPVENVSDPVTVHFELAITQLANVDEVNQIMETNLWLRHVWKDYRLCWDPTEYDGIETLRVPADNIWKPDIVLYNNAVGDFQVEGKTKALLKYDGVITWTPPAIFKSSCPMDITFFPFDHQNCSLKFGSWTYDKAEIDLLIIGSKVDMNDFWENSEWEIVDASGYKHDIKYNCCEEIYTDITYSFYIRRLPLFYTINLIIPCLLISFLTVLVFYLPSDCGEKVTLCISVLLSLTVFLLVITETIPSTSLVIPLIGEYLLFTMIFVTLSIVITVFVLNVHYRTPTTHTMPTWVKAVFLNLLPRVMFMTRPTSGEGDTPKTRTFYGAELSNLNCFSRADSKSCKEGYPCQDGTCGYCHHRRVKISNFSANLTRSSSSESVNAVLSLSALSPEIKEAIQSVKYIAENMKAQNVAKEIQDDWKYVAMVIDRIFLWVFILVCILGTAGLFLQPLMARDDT
T2 sequence (P12392 21-495): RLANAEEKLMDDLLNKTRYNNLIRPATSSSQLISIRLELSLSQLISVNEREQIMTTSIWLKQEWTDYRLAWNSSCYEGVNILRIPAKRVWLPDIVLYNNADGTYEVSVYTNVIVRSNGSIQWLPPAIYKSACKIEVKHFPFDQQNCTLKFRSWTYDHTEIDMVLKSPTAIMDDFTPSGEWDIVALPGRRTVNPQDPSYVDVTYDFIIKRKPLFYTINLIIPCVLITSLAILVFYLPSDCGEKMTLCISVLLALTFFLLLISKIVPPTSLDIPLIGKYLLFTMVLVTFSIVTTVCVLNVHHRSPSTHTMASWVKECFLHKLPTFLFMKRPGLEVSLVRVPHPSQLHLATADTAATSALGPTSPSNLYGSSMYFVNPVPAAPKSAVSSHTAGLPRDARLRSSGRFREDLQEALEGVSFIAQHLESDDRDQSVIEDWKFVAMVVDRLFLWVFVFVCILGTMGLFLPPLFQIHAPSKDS
Format: cell-based.

The target in data set [3] is T3, rat α3β2 nAChR (Rattus norvegicus, UniProt P04757+P12390).
T3 construct: expressed in transfected cells; host or cells: Xenopus laevis oocytes injected with cRNA; plasmids from J. Michael McIntosh (University of Utah)
T3 sequence (P04757 26-499 limits assumed): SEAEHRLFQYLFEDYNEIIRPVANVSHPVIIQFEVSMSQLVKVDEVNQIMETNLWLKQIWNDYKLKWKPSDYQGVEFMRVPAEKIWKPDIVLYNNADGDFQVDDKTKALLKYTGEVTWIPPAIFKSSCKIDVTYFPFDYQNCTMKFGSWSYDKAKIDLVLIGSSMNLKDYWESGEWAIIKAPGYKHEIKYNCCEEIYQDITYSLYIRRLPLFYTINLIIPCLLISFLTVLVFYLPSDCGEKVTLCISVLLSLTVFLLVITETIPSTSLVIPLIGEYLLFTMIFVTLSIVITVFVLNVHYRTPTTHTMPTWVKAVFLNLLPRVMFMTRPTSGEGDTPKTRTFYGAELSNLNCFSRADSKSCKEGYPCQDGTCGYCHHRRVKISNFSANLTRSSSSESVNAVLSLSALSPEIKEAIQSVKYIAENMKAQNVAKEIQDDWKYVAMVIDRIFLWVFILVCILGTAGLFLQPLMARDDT
T3 sequence (P12390 25-500 limits assumed): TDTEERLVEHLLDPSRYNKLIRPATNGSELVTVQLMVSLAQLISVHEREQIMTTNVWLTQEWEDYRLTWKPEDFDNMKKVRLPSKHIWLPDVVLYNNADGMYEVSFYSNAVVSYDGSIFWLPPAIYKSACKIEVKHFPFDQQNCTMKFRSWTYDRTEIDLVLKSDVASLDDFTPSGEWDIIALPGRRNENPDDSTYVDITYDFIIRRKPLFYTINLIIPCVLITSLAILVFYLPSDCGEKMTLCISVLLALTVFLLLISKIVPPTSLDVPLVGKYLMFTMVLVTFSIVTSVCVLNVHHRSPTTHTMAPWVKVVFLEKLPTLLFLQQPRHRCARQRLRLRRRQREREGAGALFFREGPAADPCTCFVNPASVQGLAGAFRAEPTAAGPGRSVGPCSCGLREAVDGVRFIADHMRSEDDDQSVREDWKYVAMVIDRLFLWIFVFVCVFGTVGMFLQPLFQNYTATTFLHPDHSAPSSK
The data set is described as follows: cell-based.

Data set [4] concerns the target T4, α7 nAChRs in rat brain slices (Rattus norvegicus, UniProt Q05941).
T4 construct: from tissue; host or cells: frozen brain slices of ten-week-old rats (hippocampus, striatum, cortex, cerebellum)

Assay in data set [5]: not given
This is another data set of the same source.

T4 sequence (Q05941 23-502): as the sequence (Q05941 23-502) above

Usually IC50 stands for the midpoint of a concentration-inhibition curve. Consider `C[C@@H]1NC(=O)[C@@H]2CSSC[C@H](NC(=O)CNC(=O)CCCCCN3/C(=C/C=C/C4=[N+](C)c5ccccc5C4(C)C)C(C)(C)c4ccccc43)C(=O)N[C@@H](CSSC[C@@H](C(N)=O)NC(=O)[C@H](Cc3c[nH]cn3)NC(=O)[C@H](CCC(=O)O)NC(=O)[C@H](Cc3c[nH]cn3)NC1=O)C(=O)N[C@@H](CO)C(=O)N[C@@H](CC(N)=O)C(=O)N1CCC[C@H]1C(=O)N1CCC[C@H]1C(=O)N2` [LvIB-C] (X1-GCCSNPPCAHEHC-NH2; disulfide 2-8, 3-13), for which the emission wavelength (Em) was found to be 570 nm. For the same compound, in data set [1], the “Hill Slope” value is reported as 1.39 (1.05–1.72), the IC50 came to 298 nM, the “inhibition rate of ACh-evoked current” value is given as 94 ± 0.20% and the “time to ~90% current restoration after block (recovery/washout)” value is listed as at most 14 min. The compound further showed an inhibition rate in data set [2] of 10 ± 0.3%. In data set [3], the inhibition rate amounted to 50 ± 2%; the IC50 is 10900 nM and 2550 nM. In data set [4], the “fluorescence labelling of brain regions” value is “distinct fluorescence distribution in the hippocampus, striatum, and cortex”. This compound displayed an excitation wavelength (Ex) in data set [5] of 550 nm.

Take `C[C@@H]1NC(=O)[C@@H]2CSSC[C@H](NC(=O)CNC(=O)c3ccc(C(=O)[O-])c(-c4c5ccc(=[N+](C)C)cc-5oc5cc(N(C)C)ccc45)c3)C(=O)N[C@@H](CSSC[C@@H](C(N)=O)NC(=O)[C@H](Cc3c[nH]cn3)NC(=O)[C@H](CCC(=O)O)NC(=O)[C@H](Cc3c[nH]cn3)NC1=O)C(=O)N[C@@H](CO)C(=O)N[C@@H](CC(N)=O)C(=O)N1CCC[C@H]1C(=O)N1CCC[C@H]1C(=O)N2` [LvIB-R] (X2-GCCSNPPCAHEHC-NH2; disulfide 2-8, 3-13): the emission wavelength (Em) was found to be 580 nm. Further, in data set [1], the “Hill Slope” value is given as 0.89 (0.67–1.14), the IC50 is 643 nM, the “inhibition rate of ACh-evoked current” value is 87 ± 0.24% and the “time to ~90% current restoration after block (recovery/washout)” value is reported as at most 14 min. Besides, in data set [4], the “fluorescence labelling of brain regions” value is “distinct fluorescence distribution in the hippocampus, striatum, and cortex”. The same compound yielded an excitation wavelength (Ex) in data set [5] of 555 nm.

Regarding `CC1=CC(C)=[N+]2C1=Cc1ccc(CCC(=O)NCC(=O)N[C@H]3CSSC[C@@H]4NC(=O)[C@@H]5CCCN5C(=O)[C@@H]5CCCN5C(=O)[C@H](CC(N)=O)NC(=O)[C@H](CO)NC(=O)[C@H](CSSC[C@@H](C(N)=O)NC(=O)[C@H](Cc5c[nH]cn5)NC(=O)[C@H](CCC(=O)O)NC(=O)[C@H](Cc5c[nH]cn5)NC(=O)[C@H](C)NC4=O)NC3=O)n1[B-]2(F)F` [LvIB-B] ({BODIPY(FL)}-GCCSNPPCAHEHC-NH2; disulfide 2-8, 3-13), the emission wavelength (Em) was 510 nm. For the same compound, in data set [1], the IC50 amounted to 187 nM and the “inhibition rate of ACh-evoked current” value amounted to 96 ± 0.11%. This compound had an inhibition rate in data set [2] of 0 ± 2%. Further, in data set [3], the inhibition rate came to 64 ± 4%; the IC50 was 2550 nM and 10900 nM. The compound further had an excitation wavelength (Ex) in data set [5] of 505 nm.

The record behind these values is article PMC11122421 (Marine Drugs, 2024).
